“And” between values parts separate entries of the source, which are not always exact repeats. Identical values can stand only once.
Assays:
[1] = system: healthy adults; assay: Phase 1 pharmacodynamics by echocardiography (LVEF), SAD and MAD cohorts; format: in vivo, human
Description: Echocardiography. For PD assessments of LVEF, echocardiograms for the SAD and MAD cohorts were interpreted by the echocardiography core laboratory and used for all data analysis and dose level review decisions while immediate local interpretation of the echocardiograms was performed for safety monitoring. […] Echocardiograms on day 3 (48 h after dosing) were obtained only if the 24 h LVEF had not returned to near or above baseline, as determined by the investigator. In the MAD cohorts, echocardiograms were obtained on day −1, pre-dose on day 1, and at 1.5 h post dose on days 2, 4, and 9, and at 1.5, 24, and 72 h post dose on day 14 (for the 5-mg and 10-mg cohorts) or on day 17 (for the 7.5-mg cohort). Echocardiograms were obtained 3 days after the last dose (on day 17 or 20) only if the participant's prior LVEF was not near or above baseline, as determined by the investigator.
All participants who received ≥1 dose of study drug and had ≥1 pre-dose and ≥1 post-dose echocardiographic measurement were included in the PD analysis set. […] Descriptive statistics of the echocardiographic parameters were generated using SAS® Version 9.3 or higher.
Dose-response analysis was performed using analysis of covariance (ANCOVA) to identify the least-squares mean difference (aficamten minus placebo). To analyze the impact of drug dose on echocardiographic parameters in the SAD and MAD cohorts, an inferential analysis was conducted on the PD analysis set using linear mixed models for repeated-measures analysis of covariance (ANCOVA). The ANCOVA used baseline value as a covariate, included treatment, time-point, and time-point-by-treatment interaction as fixed effects, and change from baseline as the dependent variable. The unstructured variance-covariance structure was used, and the model accounted for the time-point repeated measures. The ANCOVA analysis was conducted separately for each study part and for each PD parameter. The least-squares means, the difference in least squares means (active minus placebo), and the associated 2-sided 95% CIs were presented for each comparison.
Analyses of concentration ‘bin’ and exposure-response were also performed using ANCOVA. SAS® PROC MIXED was used for all comparative analyses. […] A concentration bin ANCOVA was conducted using linear mixed models for repeated-measures analyses with concentration bin group as a fixed effect, baseline PD parameters as a covariate, change from baseline as the dependent variable, and a random intercept to adjust for the repeated measures. The unstructured variance-covariance structure was used. […] The ANCOVA compared the change in PD parameters between each bin versus the pooled placebo group. The least-squares means, the difference in least squares means (bin group minus placebo), and the associated 2-sided 95% CIs were presented for each comparison. The ANCOVA analysis was conducted separately for each study part. For all time-points at which both PK data and PD measures were available, the time-points were pooled for the analysis. […] From least to greatest, the data were then divided into 5 groups of observations (‘bins’), each consisting of 20% of the data points. Each bin was treated as a separate group.
The above analysis was then repeated using concentration as a continuous variable to estimate the exposure-response trend. Both a random intercept effect and a random concentration effect were added to the ANCOVA. The estimate of the concentration slope, with corresponding 2-sided 95% CIs, and the ANCOVA analyses were presented for each study part.
For all time-points at which both PK data and PD measures were available, the time points were pooled for the analysis. A nominal significance level of 5% was used for statistical comparisons, without adjustment for multiplicity.

[2] = system: patients with symptomatic oHCM; assay: Open-label extension trial in oHCM: safety; format: in vivo, human
From the text: An open-label extension clinical trial of CK-274 in patients with symptomatic oHCM was initiated.
Patients who completed the study as described in Example 2 and had not developed atrial fibrillation were eligible to enroll in the study. Echo-guided dose titration based on site reads was managed by the investigator and could occur at any time during the trial, as described below.
Each patient received Dose 1 of CK-274 once daily for 2 weeks. […] Patients were up-titrated to Dose 2 if either of the following conditions were met on echocardiography: (1) resting LVOT-G≥30 mmHg and the biplane LVEF≥50%; or (2) resting LVOT-G<30 mmHg, post-Valsalva LVOT-G≥50 mmHg, and the biplane LVEF≥50%. Otherwise, the patient remained on 5 mg of CK-274. If LVEF was […], treatment was discontinued. If LVEF was <40%, treatment is interrupted.
Ambulatory cardiac monitoring is performed on weeks 48, 96, 144, 192 and 240. Cardiac magnetic resonance is monitored at weeks 48, 144 and 240. (See FIG. 26).

[3] = SAD 50 mg (n = 11), […] post dose

CCc1nc(-c2ccc3c(c2)CC[C@H]3NC(=O)c2cnn(C)c2)no1 [aficamten, (R)—N-(5-(5-ethyl-1,2,4-oxadiazol-3-yl)-2,3-dihydro-1H-inden-1-yl)-1-methyl-1H-pyrazole-4-carboxamide]
Participants with absolute reductions in LVEF of ≥10% from baseline ([1]; 10-mg MAD cohort): 33% | Participants with absolute reduction in LVEF ≥5% from baseline ([1]; MAD 7.5 mg once daily, 1 of 6): 17% | Participants with absolute reduction in LVEF ≥5% from baseline ([1]; MAD 10 mg once daily, 2 of 6): 33% | Number of participants with reduction in LVEF ≥10% ([1]; MAD 10-mg cohort): 2 | Plasma aficamten concentrations with minimal suppression of LVEF in most participants ([1]; MAD cohorts): ≤ 180 ng/mL | A, mean change from baseline [1, 3]: 2.5 cm/s | E, mean change from baseline [1, 3]: -2.7 cm/s | LV ET, mean change from baseline [1, 3]: 1.9 ms | Participants with absolute reduction in LVEF ≥5% from baseline ([1]; SAD 1-, 10-, or 25-mg cohorts): no participants | Participants with absolute reduction in LVEF ≥5% from baseline ([1]; SAD 3-mg cohort, 1 of 6): 17% | Participants with absolute reduction in LVEF ≥10% ([1]; SAD 40-mg cohort, 1 of 6): 17% | Participants with absolute reduction in LVEF ≥5% from baseline ([1]; SAD 40-mg cohort, 2 of 6): 33% | Participants with reduction in LVEF to <50% ([1]; SAD 50-mg cohort, 2 of 11): 18% | Participants with absolute reduction in LVEF ≥5% from baseline ([1]; SAD 50-mg cohort, 7 of 11): 64% | LVEF of the individual participants with LVEF <50% ([1]; SAD 50-mg cohort, core laboratory assessment): 48.2% and 45.5% | Participants with absolute reduction in LVEF ≥5% from baseline ([1]; SAD 75-mg cohort, 1 of 1): 100% | Participants with reduction in LVEF to <50% ([1]; SAD 75-mg cohort, 1 of 1): 100% | Participants with absolute reduction in LVEF ≥10% ([1]; SAD 75-mg cohort, 1 participant): 100% | Reduction in LVEF to <50% ([1]; any MAD cohort, core laboratory assessment): not observed | Time within which decreases in LVEF to <50% were reversible ([1]; following single doses): ≤ 6 h | Decrease in mean LVEF from baseline, least-squares mean difference vs placebo ([1]; single 50-mg dose, […] post dose, p=0.0001): 5.5% | LVEF reached by 1 participant ([1]; single dose of 75 mg, approximately […] after dosing): 34.1% | Patients with TEAE Leading to Dose Reduction ([2]; N = 38): 2 (5%) | Patients with TEAE Leading to Drug Interruption ([2]; N = 38): 1 (3%) | Patients with at Least One Related TEAE ([2]; N = 38): 8 (21%) | Patients with at Least One Severe TEAE ([2]; N = 38): 1 (3%) | Patients with at Least One TEAE ([2]; N = 38): 28 (74%) | Patients with at Least One TESAE ([2]; N = 38): 2 (5%) | LVEF of one patient with recurrent alcohol induced atrial fibrillation ([2]; on 15 mg of CK-274): 47% | Events of LVEF <50% attributed to CK-274 ([2]; open-label extension): no events
